The results in this text go back to US20240180884A1, “PYRIDOSTIGMINE FOR USE IN THE TREATMENT OF COVID-19” (priority 2021, published 2024).

SMILES strings stand for the structures.

This series deals with SARS-COV-2 infection (severe COVID-19). Put plainly: Randomized, parallel, double-blind, placebo-controlled clinical trial of oral pyridostigmine in adults hospitalized due to severe COVID-19. The series is classed as in vivo, human. To be noted: for Primary outcome: Invasive mechanical ventilation or death - %: N = 94, day 28, placebo 23.4%; for Death - % (28-day case fatality): day 28, 60 mg/day orally, placebo 20.2%; for Discharge - % (probability of being discharged from the hospital within 28 days of randomization): placebo 79.8%. The protocol:
The trial was conducted to reduce the incidence of mechanical ventilation or death in adults hospitalized due to severe COVID-19. A randomized, parallel, double-blind, placebo-controlled clinical trial was conducted. Participants were randomized (1:1 ratio) to receive oral pyridostigmine at a dose of 60 mg/day orally or an identical placebo (drug-grade starch) until the occurrence of any of the a priori specified outcomes, the hospital discharge or a maximum period of 14 days of hospital confinement, whichever comes first. The study was externally and independently watched and monitored by an independent Data and Security Monitoring Committee (DSMB). The study was conducted in two parts: an initial phase aimed at determining safety (from May 5 to Jul. 4, 2020) in which the first 44 participants were evaluated, followed by a part of a phase aimed at evaluating the effect, or lack thereof, of pyridostigmine in patients with severe COVID-19 (Jul. 5, 2020 to Jan. 30, 2021).
Adult hospitalized patients (>18 years) with confirmed SARS-COV-2 infection based on a positive RT-PCR test for SARS-COV-2 ribonucleic acid in a respiratory sample (nasopharyngeal or nasal swab) and a imaging study compatible with pneumonia, and at least one criterion of high risk of death.
Participants were randomized 1:1, with parallel allocation. Demographic information was collected from the participants at baseline, including age, sex, presence of comorbidities (including diabetes mellitus, hypertension, obesity, cardiovascular disease, lung disease or other chronic medical conditions). Participants who had already been discharged from the hospital by day 28 were contacted by phone to assess their vital and functional status.
Based on early evidence from China, an estimated 25% of patients hospitalized with severe SARS-COV-2 infection would develop complications that would lead to the need for invasive mechanical ventilation or death. Consequently, it is estimated that this sample size would allow us to identify with a power of 80% a reduction in the need for invasive mechanical ventilation or death of 10% in the group that received pyridostigmine compared to the group that received placebo, using a two-tailed […] at the significance level of 0.05. […] Based on the results of said analysis and with the data presented here, it was decided to terminate the study early.
The study was carried out at Instituto Nacional de Ciencias Médicas y Nutrición Salvador Zubirán (principal center) and Instituto Nacional de Cardiología Ignacio Chávez (recruiting center), two COVID-19 designated hospitals in Mexico City, Mexico.
An intention-to-treat analysis was performed comparing the proportion of outcomes between both therapeutic arms using the X^2 test. A multivariate logistic regression model was used to evaluate the variables associated with primary outcomes.

[1] abbreviates: at the proposed dose of pyridostigmine (60 mg/day).
Where [2] appears, read: secondary outcome, 60 mg/day orally, N = 94.

For `CN(C)C(=O)Oc1ccc[n+](C)c1` [Pyridostigmine], for the setting “60 mg/day orally, N = 94”, the “Median time (IQR) from randomization to discharge” value came to 5 days. In addition, the “Rate of adverse events” value under setting [1] is given as 5-6%. Also, the Serious adverse effects entry under setting [1] is “no serious adverse effects reported”. In addition, the “Primary outcome: Invasive mechanical ventilation or death - %” value runs as follows: (hospitalized severe COVID-19 patients, 60 mg/day orally up to 14 days, p=0.03) “(11.7) %”; (hospitalized severe COVID-19 patients, 60 mg/day orally up to 14 days, p=0.03, listed as pyridostigmine) 11.7%. Besides, the “Primary outcome: Invasive mechanical ventilation or death - no.” value (hospitalized severe COVID-19 patients, 60 mg/day orally up to 14 days, N = 94, intention to treat, day 28) came out at 11. Also, the “Death after invasive mechanical ventilation (text, among ventilated patients)” value (placebo 57.1%, no difference between groups) worked out at 33.3%. For the same molecule, the “Risk index, 28-day case fatality” value (pyridostigmine vs. placebo, 95% CI 0.16 to 0.7, p=0.01) came out at 0.33. Also, the “Hazard ratio, invasive mechanical ventilation or death on day 28” value (pyridostigmine vs. placebo, 95% CI 0.24 to 0.94, p=0.03) came to 0.47. Besides, the “Death after invasive mechanical ventilation - no.” value under setting [2] amounted to 2. In addition, the “Invasive mechanical ventilation - %” value is “(6.4) %” under setting [2] and 6.3% (secondary outcome, 60 mg/day orally, N = 94, listed as pyridostigmine). Under setting [2], the “Invasive mechanical ventilation - no.” value is given as 6. For the setting “secondary outcome, before day 28, 60 mg/day orally, N = 94”, this molecule showed a Death - no. of 7. The “Death - % (28-day case fatality)” value (secondary outcome, N = 94, p=0.01) is listed as “(7.5) %” and the “Death - % (28-day case fatality)” value (secondary outcome, N = 94, p=0.01, listed as pyridostigmine) is on record as 7.4%. Besides, the “Death after invasive mechanical ventilation - %” value (secondary outcome, percent of all N = 94) is recorded as “(2.1) %”. Also, the Discharge - no. (secondary outcome, within 28 days of randomization, N = 94) is given as 87. Besides, the “Discharge - % (probability of being discharged from the hospital within 28 days of randomization)” value is given as “(92.6) %” (within 28 days of randomization, N = 94, p=0.01) and 92.6% (within 28 days of randomization, N = 94, p=0.01, listed as pyridostigmine).
